Measurements taken from ChEMBL document CHEMBL3885881, “DrugMatrix”.

Species on record: Rattus norvegicus
Assay: DrugMatrix - Regimen: Daily Repeat
Format: toxicity, organism-based, Sprague-Dawley
Design: regimen Daily Repeat, gender Male, age 6-8 weeks
Conditions: in vivo, po, route oral GAVAGE; for ALANINE AMINOTRANSFERASE / ALKALINE PHOSPHATASE / ASPARTATE AMINOTRANSFERASE / BLOOD UREA NITROGEN / CARBON DIOXIDE / CHLORIDE / CHOLESTEROL / CREATINE PHOSPHOKINASE / CREATININE / GLUCOSE / LACTATE DEHYDROGENASE / LIPASE / PHOSPHORUS / POTASSIUM / SODIUM / TOTAL BILIRUBIN / URIC ACID / ALBUMIN / TOTAL PROTEIN: tissue Plasma
[1] = 0 mg/kg, 120 h, tissue Blood, dose level Control, time 5 day, vehicle 100 % WATER
[2] = 0 mg/kg, 120 h, dose level Control, time 5 day, vehicle 100 % SALINE
[3] = 0 mg/kg, 120 h, dose level Control, time 5 day, vehicle 100 % WATER
[4] = 300 mg/kg, 72 h, tissue Blood, dose level M2, time 3 day, vehicle 100 % SALINE
[5] = 300 mg/kg, 72 h, dose level M2, time 3 day, vehicle 100 % SALINE
[6] = 300 mg/kg, 120 h, tissue Blood, dose level M2, time 5 day, vehicle 100 % SALINE

SMILES: CCCc1nn(C)c2c(=O)[nH]c(-c3cc(S(=O)(=O)N4CCN(C)CC4)ccc3OCC)nc12
- EOSINOPHIL [1]: 0%
- ERYTHROCYTE COUNT [1]: 5.49 x10E6/uL
- HEMATOCRIT [1]: 34.63%
- HEMOGLOBIN [1]: 13.72 G/DL
- LEUKOCYTE COUNT [1]: 11.32 x10E3/uL
- LYMPHOCYTE [1]: 92.67%
- MEAN CORPUSCULAR HEMOGLOBIN [1]: 24.97 pg
- MEAN CORPUSCULAR HEMOGLOBIN CONCENTRATION [1]: 39.57 G/DL
- MEAN CORPUSCULAR VOLUME [1]: 63.05 fL
- MONOCYTE [1]: 0.17%
- NEUTROPHIL [1]: 7.17%
- NUCLEATED RED BLOOD CELLS [1]: 0.17 /100WBC
- PLATELET COUNT [1]: 802 x10E3/uL
- ALANINE AMINOTRANSFERASE [2]: 49.33 u/L
- ALKALINE PHOSPHATASE [2]: 300.33 u/L
- ASPARTATE AMINOTRANSFERASE [2]: 83.5 u/L
- BLOOD UREA NITROGEN [2]: 16 mg/dL
- CARBON DIOXIDE [2]: 29.67 mmol/L
- CHLORIDE [2]: 100.5 MEQ/L
- CHOLESTEROL [2]: 74.33 mg/dL
- CREATINE PHOSPHOKINASE [2]: 489.67 u/L
- CREATININE [2]: 0.35 mg/dL
- GLUCOSE [2]: 151 mg/dL
- LACTATE DEHYDROGENASE [2]: 133.67 u/L
- LIPASE [2]: 11.17 u/L
- PHOSPHORUS [2]: 10.88 mg/dL
- POTASSIUM [2]: 5.5 MEQ/L
- SODIUM [2]: 145.7 MEQ/L
- TOTAL BILIRUBIN [2]: 0.2 mg/dL
- URIC ACID [2]: 0.68 mg/dL
- ALANINE AMINOTRANSFERASE [3]: 50.5 u/L
- ALBUMIN [3]: 4.07 G/DL
- ALKALINE PHOSPHATASE [3]: 336.83 u/L
- ASPARTATE AMINOTRANSFERASE [3]: 81 u/L
- BLOOD UREA NITROGEN [3]: 14.17 mg/dL
- CARBON DIOXIDE [3]: 32 mmol/L
- CHLORIDE [3]: 98.33 MEQ/L
- CHOLESTEROL [3]: 69.17 mg/dL
- CREATINE PHOSPHOKINASE [3]: 253.33 u/L
- CREATININE [3]: 0.13 mg/dL
- GLUCOSE [3]: 153.67 mg/dL
- LACTATE DEHYDROGENASE [3]: 157 u/L
- LIPASE [3]: 9 u/L
- PHOSPHORUS [3]: 10.78 mg/dL
- POTASSIUM [3]: 6.11 MEQ/L
- SODIUM [3]: 144.57 MEQ/L
- TOTAL BILIRUBIN [3]: 0.15 mg/dL
- TOTAL PROTEIN [3]: 6.05 G/DL
- URIC ACID [3]: 0.73 mg/dL
- ABSOLUTE BASOPHIL [4]: 0 CELLS/uL
- ABSOLUTE EOSINOPHIL [4]: 110.67 CELLS/uL
- ABSOLUTE LYMPHOCYTE [4]: 12663.33 CELLS/uL
- ABSOLUTE MONOCYTE [4]: 138 CELLS/uL
- ABSOLUTE SEGMENTED NEUTROPHIL [4]: 821.33 CELLS/uL
- BASOPHIL [4]: 0%
- EOSINOPHIL [4]: 0.67%
- ERYTHROCYTE COUNT [4]: 5.21 x10E6/uL
- HEMATOCRIT [4]: 34.03%
- HEMOGLOBIN [4]: 13.07 G/DL
- LEUKOCYTE COUNT [4]: 13.73 x10E3/uL
- LYMPHOCYTE [4]: 92.67%
- MEAN CORPUSCULAR HEMOGLOBIN [4]: 25.03 pg
- MEAN CORPUSCULAR HEMOGLOBIN CONCENTRATION [4]: 38.43 G/DL
- MEAN CORPUSCULAR VOLUME [4]: 65.3 fL
- MONOCYTE [4]: 0.67%
- NEUTROPHIL [4]: 6%
- NUCLEATED RED BLOOD CELLS [4]: 0.33 /100WBC
- PLATELET COUNT [4]: 1148.67 x10E3/uL
- ALANINE AMINOTRANSFERASE [5]: 45.67 u/L
- ALBUMIN [5]: 3.8 G/DL
- ALKALINE PHOSPHATASE [5]: 335 u/L
- ASPARTATE AMINOTRANSFERASE [5]: 71.67 u/L
- BLOOD UREA NITROGEN [5]: 13.33 mg/dL
- CARBON DIOXIDE [5]: 27.67 mmol/L
- CHLORIDE [5]: 100 MEQ/L
- CHOLESTEROL [5]: 70.67 mg/dL
- CREATINE PHOSPHOKINASE [5]: 284 u/L
- CREATININE [5]: 0.2 mg/dL
- GLUCOSE [5]: 154 mg/dL
- LACTATE DEHYDROGENASE [5]: 142.33 u/L
- LIPASE [5]: 12.33 u/L
- PHOSPHORUS [5]: 11.37 mg/dL
- POTASSIUM [5]: 5.84 MEQ/L
- SODIUM [5]: 144.75 MEQ/L
- TOTAL BILIRUBIN [5]: 0.13 mg/dL
- TOTAL PROTEIN [5]: 5.13 G/DL
- URIC ACID [5]: 0.97 mg/dL
- ABSOLUTE BASOPHIL [6]: 0 CELLS/uL
- ABSOLUTE EOSINOPHIL [6]: 0 CELLS/uL
- ABSOLUTE LYMPHOCYTE [6]: 10278 CELLS/uL
- ABSOLUTE MONOCYTE [6]: 0 CELLS/uL
- ABSOLUTE SEGMENTED NEUTROPHIL [6]: 955.33 CELLS/uL
